Measured values from ChEMBL document CHEMBL5257141, “PROTAC: Harnessing Targeted Chimeras for Selective BCL-2 Degradation in Cancer Treatment” (ACS Med Chem Lett, 2023).

Each molecule was assayed against Apoptosis regulator Bcl-2 (Homo sapiens, UniProt P10415) (assay: Inhibition of BCL-2 (unknown origin) using FITC-Ahx-GQVGRQLAIIGDDINR-CONH2 as substrate incubated for 4 hrs by fluorescence polarization competition assay).
Apoptosis regulator Bcl-2, sequence (P10415 whole entry): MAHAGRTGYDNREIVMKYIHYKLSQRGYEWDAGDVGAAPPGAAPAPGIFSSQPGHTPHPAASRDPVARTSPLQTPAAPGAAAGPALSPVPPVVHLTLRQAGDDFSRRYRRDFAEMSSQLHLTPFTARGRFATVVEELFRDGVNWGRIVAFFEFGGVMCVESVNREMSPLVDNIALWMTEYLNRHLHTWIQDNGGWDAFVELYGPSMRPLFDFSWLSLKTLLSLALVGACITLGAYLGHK

IC50, < 20 nM:
COc1cc(C(=O)NCCNc2ccc(S(=O)(=O)NC(=O)c3ccc(N4CCN(CC5=C(c6ccc(Cl)cc6)CC(C)(C)CC5)CC4)cc3Oc3cnc4[nH]ccc4c3)cc2[N+](=O)[O-])ccc1NC(=O)[C@@H]1N[C@@H](CC(C)(C)C)[C@](C#N)(c2ccc(Cl)cc2F)[C@H]1c1cccc(Cl)c1F
CC1(C)CCC(CN2CCN(c3ccc(C(=O)NS(=O)(=O)c4ccc(NCCNC(=O)COc5cccc6c5C(=O)N(C5CCC(=O)NC5=O)C6=O)c([N+](=O)[O-])c4)c(Oc4cnc5[nH]ccc5c4)c3)CC2)=C(c2ccc(Cl)cc2)C1 (stereo not given)
CC1(C)CCC(CN2CCN(c3ccc(C(=O)NS(=O)(=O)c4ccc(NCCOCCOCCNC(=O)CCNC(=O)COc5cccc6c5C(=O)N(C5CCC(=O)NC5=O)C6=O)c([N+](=O)[O-])c4)c(Oc4cnc5[nH]ccc5c4)c3)CC2)=C(c2ccc(Cl)cc2)C1 (stereo not given)
CC1(C)CCC(CN2CCN(c3ccc(C(=O)NS(=O)(=O)c4ccc(NCCOCCOCCNC(=O)COc5cccc6c5C(=O)N(C5CCC(=O)NC5=O)C6=O)c([N+](=O)[O-])c4)c(Oc4cnc5[nH]ccc5c4)c3)CC2)=C(c2ccc(Cl)cc2)C1 (stereo not given)
COc1cc(C(=O)NCCOCCOCCNc2ccc(S(=O)(=O)NC(=O)c3ccc(N4CCN(CC5=C(c6ccc(Cl)cc6)CC(C)(C)CC5)CC4)cc3Oc3cnc4[nH]ccc4c3)cc2[N+](=O)[O-])ccc1NC(=O)[C@@H]1N[C@@H](CC(C)(C)C)[C@](C#N)(c2ccc(Cl)cc2F)[C@H]1c1cccc(Cl)c1F
